± gives the expanded uncertainty stated by the source.
Experiment: Boiling temperature at pressure P
Settings: 101.33 kPa; Liquid; Ebulliometric method (Recirculating still)

Structure (SMILES)	Boiling temperature at pressure P [°C]
CCCCOC(C)=O [butyl ethanoate]	125.92 ± 0.05
COc1ccccc1O [2-methoxyphenol]	205.10 ± 0.05
COc1ccccc1 [anisole]	153.54 ± 0.05

Reference: the NIST ThermoML archive (doi:10.1016/j.jct.2015.04.003)
